According to paper PMC9013686, “Inter-individual variation in chlorpyrifos toxicokinetics characterized by physiologically based kinetic (PBK) and Monte Carlo simulation comparing human liver microsome and Supersome™ cytochromes P450 (CYP)-specific kinetic data as model input” (Archives of Toxicology, 2022):
Several values for one entry are separate records, joined by “and”; a condition that tells them apart may be missing. Equal values may be shown once. Marks after values point to notes of the source that are not given here.

Legend:
PON1 in plasma = assay: PON1-catalyzed detoxification of CPO to TCPy in individual human plasma (pathway 4); type: in vitro ADME; settings: for CE / Scaled CE / Vmax / Vmax (app) / Scaled Vmax: CPO to TCPy; for Scaled Vmax: Eq 7
Protocol: After 1 min preincubation in a shaking 37 °C water bath, 1 µl of individual HP was added into the incubation system. Control incubations were performed by replacing plasma with the same amount of 50 mM Tris–HCl (pH 7.4). The total volume of the incubation mixtures was 200 µl. The incubation lasted for 1.5 min at 37 °C and was terminated by addition of 200 µl ice cold ACN and subsquently put on ice. Samples were subsequently centrifuged at 16,000 g (4 ℃) for 5 min and analyzed by UPLC-PDA. […]
In pathway 4, the in vivo VmaxHP (µmol/h) was extrapolated from its corresponding mean of the apparent VmaxHP(app) (nmol/min/ml plasma) of 25 individuals HP using Eq. 7:7 VmaxHP=VmaxHP(app)×60×1000×VB×0.55/1000,

[1] = system: paraoxonase1 (PON1) in liver; settings: Pathway 3 (CPO to TCPy in liver); pooled HLMs; ref Zhao et al. ([2019]); cited from earlier work
[2] = PBK modelling with Monte Carlo simulation (Supersome-based and HLM-based); parameters: species or system human; settings: oral 0.5 mg/kg bw CPF, in vivo data Nolan et al. [1984]
Description: Compared to the PBK model of Zhao et al. ([2019]), only the fractional absorption was changed to 0.462, which is the mean value of reported fa values from Timchalk et al. ([2002]) (fa = 0.224) and Nolan et al. ([1984]) (fa = 0.7), while for the other model parameters (non-kinetic), the mean values as reported in Zhao et al. ([2019]) were used.
Compared to the model of Zhao et al. ([2019]), in the Supersome™-based PBK model approach, the kinetic parameters of pathway 1 and pathway 2 were replaced from HLM-derived values to Supersome™-derived values, while the kinetic parameters of pathway 3 were kept the same. For pathway 4, instead of using the reported kinetic parameters from Mosquin et al. ([2009]), the calculated mean values of kinetic parameters obtained based on 25 individual HP samples derived by the present study were used. […]
The performance of the Supersome™-based PBK model and the HLM-based PBK model (biphasic) were evaluated by comparing their predicted time-dependent TCPy and CPF blood concentrations including the maximum total (bound and unbound) blood concentration (Cmax) or time-dependent blood concentration, and the cumulative time-dependent urinary TCPy excretion with corresponding available in vivo data (Drevenkar et al. [1993]; Nolan et al. [1984]; Timchalk et al. [2002]) upon similar dosing regimens or estimated dose level. […]

Compound: CCOP(=O)(OCC)Oc1nc(Cl)c(Cl)cc1Cl [CPO, chlorpyrifos-oxon]
- difference between the highest and the lowest CE (PON1 in plasma; CPO detoxification in plasma of 25 individuals): around 2.6 fold
- CE (PON1 in plasma; plasma individual 1 (64)): 4.1 ml/min/ml plasma
- Scaled CE (PON1 in plasma; plasma individual 1 (64)): 750.1 L/h
- Vmax (PON1 in plasma; plasma individual 1 (64)): 1596 nmol/min/ml plasma
- Vmax (app) (PON1 in plasma; plasma individual 1 (64)): 21.78 nmol/min/mg plasma protein
- Scaled Vmax (PON1 in plasma; plasma individual 1 (64)): 291247 µmol/h
- CE (PON1 in plasma; plasma individual 2 (65)): 4.0 ml/min/ml plasma
- Scaled CE (PON1 in plasma; plasma individual 2 (65)): 724.7 L/h
- Vmax (PON1 in plasma; plasma individual 2 (65)): 1233 nmol/min/ml plasma
- Vmax (app) (PON1 in plasma; plasma individual 2 (65)): 17.32 nmol/min/mg plasma protein
- Scaled Vmax (PON1 in plasma; plasma individual 2 (65)): 224952 µmol/h
- CE (PON1 in plasma; plasma individual 3 (56)): 6.4 ml/min/ml plasma
- Scaled CE (PON1 in plasma; plasma individual 3 (56)): 1172.4 L/h
- Vmax (PON1 in plasma; plasma individual 3 (56)): 2439 nmol/min/ml plasma
- Vmax (app) (PON1 in plasma; plasma individual 3 (56)): 32.15 nmol/min/mg plasma protein
- Scaled Vmax (PON1 in plasma; plasma individual 3 (56)): 445176 µmol/h
- CE (PON1 in plasma; plasma individual 4 (52)): 5.0 ml/min/ml plasma
- Scaled CE (PON1 in plasma; plasma individual 4 (52)): 915.9 L/h
- Vmax (PON1 in plasma; plasma individual 4 (52)): 1591 nmol/min/ml plasma
- Vmax (app) (PON1 in plasma; plasma individual 4 (52)): 22.39 nmol/min/mg plasma protein
- Scaled Vmax (PON1 in plasma; plasma individual 4 (52)): 290427 µmol/h
- CE (PON1 in plasma; plasma individual 5 (51)): 5.2 ml/min/ml plasma
- Scaled CE (PON1 in plasma; plasma individual 5 (51)): 939.9 L/h
- Vmax (PON1 in plasma; plasma individual 5 (51)): 3284 nmol/min/ml plasma
- Vmax (app) (PON1 in plasma; plasma individual 5 (51)): 45.36 nmol/min/mg plasma protein
- Scaled Vmax (PON1 in plasma; plasma individual 5 (51)): 599306 µmol/h
- CE (PON1 in plasma; plasma individual 6 (57)): 5.7 ml/min/ml plasma
- Scaled CE (PON1 in plasma; plasma individual 6 (57)): 1047.5 L/h
- Vmax (PON1 in plasma; plasma individual 6 (57)): 1878 nmol/min/ml plasma
- Vmax (app) (PON1 in plasma; plasma individual 6 (57)): 23.22 nmol/min/mg plasma protein
- Scaled Vmax (PON1 in plasma; plasma individual 6 (57)): 342626 µmol/h
- CE (PON1 in plasma; plasma individual 7): 7.9 ml/min/ml plasma
- Scaled CE (PON1 in plasma; plasma individual 7): 1441.5 L/h
- Vmax (PON1 in plasma; plasma individual 7): 1203 nmol/min/ml plasma
- Vmax (app) (PON1 in plasma; plasma individual 7): 14.99 nmol/min/mg plasma protein
- Scaled Vmax (PON1 in plasma; plasma individual 7): 219543 µmol/h
- CE (PON1 in plasma; plasma individual 8): 7.3 ml/min/ml plasma
- Scaled CE (PON1 in plasma; plasma individual 8): 1332.3 L/h
- Vmax (PON1 in plasma; plasma individual 8): 1663 nmol/min/ml plasma
- Vmax (app) (PON1 in plasma; plasma individual 8): 21.31 nmol/min/mg plasma protein
- Scaled Vmax (PON1 in plasma; plasma individual 8): 303506 µmol/h
- CE (PON1 in plasma; plasma individual 9): 7.6 ml/min/ml plasma
- Scaled CE (PON1 in plasma; plasma individual 9): 1391.7 L/h
- Vmax (PON1 in plasma; plasma individual 9): 2157 nmol/min/ml plasma
- Vmax (app) (PON1 in plasma; plasma individual 9): 27.46 nmol/min/mg plasma protein
- Scaled Vmax (PON1 in plasma; plasma individual 9): 393583 µmol/h
- CE (PON1 in plasma; plasma individual 10): 9.2 ml/min/ml plasma
- Scaled CE (PON1 in plasma; plasma individual 10): 1671.6 L/h
- Vmax (PON1 in plasma; plasma individual 10): 2370 nmol/min/ml plasma
- Vmax (app) (PON1 in plasma; plasma individual 10): 28.9 nmol/min/mg plasma protein
- CE (PON1 in plasma; plasma individual 11): 6.4 ml/min/ml plasma
- Scaled CE (PON1 in plasma; plasma individual 11): 1168.7 L/h
- Vmax (PON1 in plasma; plasma individual 11): 1314 nmol/min/ml plasma
- Vmax (app) (PON1 in plasma; plasma individual 11): 17.42 nmol/min/mg plasma protein
- Scaled Vmax (PON1 in plasma; plasma individual 11): 239710 µmol/h
- CE (PON1 in plasma; plasma individual 12): 8.2 ml/min/ml plasma
- Scaled CE (PON1 in plasma; plasma individual 12): 1500.5 L/h
- Vmax (PON1 in plasma; plasma individual 12): 2461 nmol/min/ml plasma
- Vmax (app) (PON1 in plasma; plasma individual 12): 26.75 nmol/min/mg plasma protein
- Scaled Vmax (PON1 in plasma; plasma individual 12): 449105 µmol/h
- CE (PON1 in plasma; plasma individual 13): 6.6 ml/min/ml plasma
- Scaled CE (PON1 in plasma; plasma individual 13): 1211.5 L/h
- Vmax (PON1 in plasma; plasma individual 13): 1498 nmol/min/ml plasma
- Vmax (app) (PON1 in plasma; plasma individual 13): 20.58 nmol/min/mg plasma protein
- Scaled Vmax (PON1 in plasma; plasma individual 13): 273437 µmol/h
- CE (PON1 in plasma; plasma individual 14): 5.8 ml/min/ml plasma
- Scaled CE (PON1 in plasma; plasma individual 14): 1053.7 L/h
- Vmax (PON1 in plasma; plasma individual 14): 2064 nmol/min/ml plasma
- Vmax (app) (PON1 in plasma; plasma individual 14): 28.36 nmol/min/mg plasma protein
- Scaled Vmax (PON1 in plasma; plasma individual 14): 376692 µmol/h
- CE (PON1 in plasma; plasma individual 15): 9.8 ml/min/ml plasma
- Scaled CE (PON1 in plasma; plasma individual 15): 1793.2 L/h
- Vmax (PON1 in plasma; plasma individual 15): 1840 nmol/min/ml plasma
- Vmax (app) (PON1 in plasma; plasma individual 15): 24.79 nmol/min/mg plasma protein
- Scaled Vmax (PON1 in plasma; plasma individual 15): 335867 µmol/h
- CE (PON1 in plasma; plasma individual 16): 3.7 ml/min/ml plasma
- Scaled CE (PON1 in plasma; plasma individual 16): 671.6 L/h
- Vmax (PON1 in plasma; plasma individual 16): 912 nmol/min/ml plasma
- Vmax (app) (PON1 in plasma; plasma individual 16): 11.28 nmol/min/mg plasma protein
- Scaled Vmax (PON1 in plasma; plasma individual 16): 166366 µmol/h
- CE (PON1 in plasma; plasma individual 17): 8.1 ml/min/ml plasma
- Scaled CE (PON1 in plasma; plasma individual 17): 1480.1 L/h
- Vmax (PON1 in plasma; plasma individual 17): 2287 nmol/min/ml plasma
- Vmax (app) (PON1 in plasma; plasma individual 17): 32.03 nmol/min/mg plasma protein
- Scaled Vmax (PON1 in plasma; plasma individual 17): 417377 µmol/h
- CE (PON1 in plasma; plasma individual 18): 5.6 ml/min/ml plasma
- Scaled CE (PON1 in plasma; plasma individual 18): 1029.2 L/h
- Vmax (PON1 in plasma; plasma individual 18): 1132 nmol/min/ml plasma
- Vmax (app) (PON1 in plasma; plasma individual 18): 15.18 nmol/min/mg plasma protein
- Scaled Vmax (PON1 in plasma; plasma individual 18): 206569 µmol/h
- CE (PON1 in plasma; plasma individual 19 (48)): 5.3 ml/min/ml plasma
- Scaled CE (PON1 in plasma; plasma individual 19 (48)): 971.2 L/h
- Vmax (PON1 in plasma; plasma individual 19 (48)): 1329 nmol/min/ml plasma
- Vmax (app) (PON1 in plasma; plasma individual 19 (48)): 18.21 nmol/min/mg plasma protein
- Scaled Vmax (PON1 in plasma; plasma individual 19 (48)): 242612 µmol/h
- CE (PON1 in plasma; plasma individual 20 (49)): 6.9 ml/min/ml plasma
- Scaled CE (PON1 in plasma; plasma individual 20 (49)): 1252.4 L/h
- Vmax (PON1 in plasma; plasma individual 20 (49)): 2111 nmol/min/ml plasma
- Vmax (app) (PON1 in plasma; plasma individual 20 (49)): 24.85 nmol/min/mg plasma protein
- Scaled Vmax (PON1 in plasma; plasma individual 20 (49)): 385226 µmol/h
- CE (PON1 in plasma; plasma individual 21 (44)): 6.5 ml/min/ml plasma
- Scaled CE (PON1 in plasma; plasma individual 21 (44)): 1181.9 L/h
- Vmax (PON1 in plasma; plasma individual 21 (44)): 1835 nmol/min/ml plasma
- Vmax (app) (PON1 in plasma; plasma individual 21 (44)): 23.05 nmol/min/mg plasma protein
- Scaled Vmax (PON1 in plasma; plasma individual 21 (44)): 334943 µmol/h
- CE (PON1 in plasma; plasma individual 22 (34)): 7.3 ml/min/ml plasma
- Scaled CE (PON1 in plasma; plasma individual 22 (34)): 1325.9 L/h
- Vmax (PON1 in plasma; plasma individual 22 (34)): 1726 nmol/min/ml plasma
- Vmax (app) (PON1 in plasma; plasma individual 22 (34)): 24.05 nmol/min/mg plasma protein
- Scaled Vmax (PON1 in plasma; plasma individual 22 (34)): 315041 µmol/h
- CE (PON1 in plasma; plasma individual 23 (47)): 5.7 ml/min/ml plasma
- Scaled CE (PON1 in plasma; plasma individual 23 (47)): 1044.7 L/h
- Vmax (PON1 in plasma; plasma individual 23 (47)): 2141 nmol/min/ml plasma
- Vmax (app) (PON1 in plasma; plasma individual 23 (47)): 24.05 nmol/min/mg plasma protein
- Scaled Vmax (PON1 in plasma; plasma individual 23 (47)): 390628 µmol/h
- CE (PON1 in plasma; plasma individual 24 (28)): 8.7 ml/min/ml plasma
- Scaled CE (PON1 in plasma; plasma individual 24 (28)): 1595.0 L/h
- Vmax (PON1 in plasma; plasma individual 24 (28)): 2357 nmol/min/ml plasma
- Vmax (app) (PON1 in plasma; plasma individual 24 (28)): 28.44 nmol/min/mg plasma protein
- Scaled Vmax (PON1 in plasma; plasma individual 24 (28)): 430169 µmol/h
- CE (PON1 in plasma; plasma individual 25 (41)): 7.1 ml/min/ml plasma
- Scaled CE (PON1 in plasma; plasma individual 25 (41)): 1293.4 L/h
- Vmax (PON1 in plasma; plasma individual 25 (41)): 1676 nmol/min/ml plasma
- Vmax (app) (PON1 in plasma; plasma individual 25 (41)): 22.13 nmol/min/mg plasma protein
- Scaled Vmax (PON1 in plasma; plasma individual 25 (41)): 305884 µmol/h
- Vmax (mean) (PON1 in plasma; Pathway 4 (CPO to TCPy in plasma), mean of 25 individual HP samples): 1844 nmol/min/ml plasma and 1844.000^i nmol/min/ml plasma
- Km [1]: 628 µM
- Vmax [1]: 37.980 ^e nmol/min/mg microsomal protein

Compound: Oc1nc(Cl)c(Cl)cc1Cl [TCPy, 3,5,6-trichloro-2-pyridinol]
- predicted blood Cmax versus mean in vivo Cmax ([2]; both PBK models): 2.2 fold
- predicted urinary excretion at 120 h versus in vivo value [2]: 0.8 fold
